From patent publication US11395857B2, “Radiolabeled melanocortin 1 receptor-specific alpha-melanocyte-stimulating hormone analogues for imaging or therapy” (PROVINCIAL HEALTH SERVICES AUTHORITY, priority 2018, dated 2022)
Like-named read-outs stand apart in the source and are kept apart here.

Assays:
[1] = Biodistribution of 177Lu-labeled αMSH analogues in mice bearing B16F10 mouse melanoma; format: in vivo, C57BL/6J mice; conditions: mouse, iv, total radioactivity, C57BL/6J mice, B16F10 melanoma
Method: (§1) The B16-F10 mouse melanoma cells were cultured and inoculated in mice as described in Example 1.
(§2) For biodistribution studies, approximately 1-2 MBq of ^177Lu-labeled αMSH analogues via tail vein under anesthesia. At 1, 4, 24, and 120 h p.i., the mice were euthanized by CO2 inhalation. Organs/tissues were harvested and the radioactivity was measured as described in Example 1.

B16F10 mouse melanoma = assay: as above; format: in vivo, C57BL/6J mice; conditions: C57BL/6J mice, B16F10 melanoma
Method: as §1, §2

SMILES: CCCC[C@H](NC(=O)CN1CCC(NC(=O)[C@H](CCCCNC(=O)CN2CCN(CC(=O)O)CCN(CC(=O)O)CCN(CC(=O)O)CC2)NC(=O)[C@H](CCC(=O)O)NC(=O)CCCc2ccc(I)cc2)CC1)C(=O)N[C@H]1CC(=O)NCCCC[C@@H](C(N)=O)N(C)C(=O)[C@H](Cc2c[nH]c3ccccc23)N(C)C(=O)[C@H](CCCNC(=N)N)N(C)C(=O)[C@@H](Cc2ccccc2)NC(=O)[C@H](Cc2c[nH]cn2)N(C)C1=O [^177Lu-labeled CCZ01088, metal not drawn]
- tissue uptake at 1 h ([1]; male, seminal glands, 1 h p.i., read-out: Biodistribution, Seminal glands): 0.52 ± 0.15 %ID/g
- tissue uptake at 4 h ([1]; male, seminal glands, 4 h p.i., read-out: Biodistribution, Seminal glands): 0.14 ± 0.04 %ID/g
- tissue uptake at 24 h ([1]; male, seminal glands, 24 h p.i., read-out: Biodistribution, Seminal glands): 0.08 ± 0.07 %ID/g
- tissue uptake at 120 h ([1]; male, seminal glands, 120 h p.i., read-out: Biodistribution, Seminal glands): 0.04 ± 0.03 %ID/g
- tissue uptake at 4 h ([1]; male, testes, 4 h p.i., read-out: Biodistribution, Testes): 0.33 ± 0.08 %ID/g
- tissue uptake at 24 h ([1]; male, testes, 24 h p.i., read-out: Biodistribution, Testes): 0.17 ± 0.01 %ID/g
- tissue uptake at 120 h ([1]; male, testes, 120 h p.i., read-out: Biodistribution, Testes): 0.11 ± 0.01 %ID/g
- tissue uptake at 1 h ([1]; adrenal glands, 1 h p.i., read-out: Biodistribution, Adrenal glands): 3.69 ± 2.09 %ID/g
- tissue uptake at 4 h ([1]; adrenal glands, 4 h p.i., read-out: Biodistribution, Adrenal glands): 0.88 ± 0.41 %ID/g
- tissue uptake at 24 h ([1]; adrenal glands, 24 h p.i., read-out: Biodistribution, Adrenal glands): 0.62 ± 0.34 %ID/g
- tissue uptake at 120 h ([1]; adrenal glands, 120 h p.i., read-out: Biodistribution, Adrenal glands): 0.34 ± 0.23 %ID/g
- tissue uptake at 1 h ([1]; blood, 1 h p.i., read-out: Biodistribution, Blood): 7.41 ± 1.64 %ID/g
- tissue uptake at 4 h ([1]; blood, 4 h p.i., read-out: Biodistribution, Blood): 1.44 ± 0.39 %ID/g
- tissue uptake at 24 h ([1]; blood, 24 h p.i., read-out: Biodistribution, Blood): 0.09 ± 0.02 %ID/g
- tissue uptake at 120 h ([1]; blood, 120 h p.i., read-out: Biodistribution, Blood): 0.01 %ID/g
- tissue uptake at 1 h ([1]; bone, 1 h p.i., read-out: Biodistribution, Bone): 0.98 ± 0.12 %ID/g
- tissue uptake at 4 h ([1]; bone, 4 h p.i., read-out: Biodistribution, Bone): 0.3 ± 0.08 %ID/g
- tissue uptake at 24 h ([1]; bone, 24 h p.i., read-out: Biodistribution, Bone): 0.23 ± 0.04 %ID/g
- tissue uptake at 120 h ([1]; bone, 120 h p.i., read-out: Biodistribution, Bone): 0.13 ± 0.09 %ID/g
- tissue uptake at 1 h ([1]; brain, 1 h p.i., read-out: Biodistribution, Brain): 0.13 ± 0.02 %ID/g
- tissue uptake at 4 h ([1]; brain, 4 h p.i., read-out: Biodistribution, Brain): 0.04 ± 0.02 %ID/g
- tissue uptake at 24 h ([1]; brain, 24 h p.i., read-out: Biodistribution, Brain): 0.02 ± 0.01 %ID/g
- tissue uptake at 120 h ([1]; brain, 120 h p.i., read-out: Biodistribution, Brain): 0.01 ± 0.01 %ID/g
- tissue uptake at 1 h ([1]; fat, 1 h p.i., read-out: Biodistribution, Fat): 0.65 ± 0.37 %ID/g
- tissue uptake at 4 h ([1]; fat, 4 h p.i., read-out: Biodistribution, Fat): 0.16 ± 0.07 %ID/g
- tissue uptake at 24 h ([1]; fat, 24 h p.i., read-out: Biodistribution, Fat): 0.06 ± 0.04 %ID/g
- tissue uptake at 120 h ([1]; fat, 120 h p.i., read-out: Biodistribution, Fat): 0.03 ± 0.01 %ID/g
- tissue uptake at 1 h ([1]; heart, 1 h p.i., read-out: Biodistribution, Heart): 1.84 ± 0.31 %ID/g
- tissue uptake at 4 h ([1]; heart, 4 h p.i., read-out: Biodistribution, Heart): 0.4 ± 0.1 %ID/g
- tissue uptake at 24 h ([1]; heart, 24 h p.i., read-out: Biodistribution, Heart): 0.13 ± 0.02 %ID/g
- tissue uptake at 120 h ([1]; heart, 120 h p.i., read-out: Biodistribution, Heart): 0.07 ± 0.02 %ID/g
- tissue uptake at 1 h ([1]; intestine, 1 h p.i., read-out: Biodistribution, Intestine): 1.39 ± 0.37 %ID/g
- tissue uptake at 4 h ([1]; intestine, 4 h p.i., read-out: Biodistribution, Intestine): 0.37 ± 0.11 %ID/g
- tissue uptake at 24 h ([1]; intestine, 24 h p.i., read-out: Biodistribution, Intestine): 0.18 ± 0.03 %ID/g
- tissue uptake at 120 h ([1]; intestine, 120 h p.i., read-out: Biodistribution, Intestine): 0.43 ± 0.55 %ID/g
- tissue uptake at 1 h ([1]; kidneys, 1 h p.i., read-out: Biodistribution, Kidneys): 13.2 ± 3.61 %ID/g
- tissue uptake at 4 h ([1]; kidneys, 4 h p.i., read-out: Biodistribution, Kidneys): 13.5 ± 3.47 %ID/g
- tissue uptake at 24 h ([1]; kidneys, 24 h p.i., read-out: Biodistribution, Kidneys): 8.1 ± 2.24 %ID/g
- tissue uptake at 120 h ([1]; kidneys, 120 h p.i., read-out: Biodistribution, Kidneys): 1.85 ± 0.57 %ID/g
- tissue uptake at 1 h ([1]; liver, 1 h p.i., read-out: Biodistribution, Liver): 2.72 ± 0.27 %ID/g
- tissue uptake at 4 h ([1]; liver, 4 h p.i., read-out: Biodistribution, Liver): 1.98 ± 0.41 %ID/g
- tissue uptake at 24 h ([1]; liver, 24 h p.i., read-out: Biodistribution, Liver): 4.7 ± 3.76 %ID/g
- tissue uptake at 120 h ([1]; liver, 120 h p.i., read-out: Biodistribution, Liver): 0.55 ± 0.18 %ID/g
- tissue uptake at 1 h ([1]; lungs, 1 h p.i., read-out: Biodistribution, Lungs): 5.51 ± 1.75 %ID/g
- tissue uptake at 4 h ([1]; lungs, 4 h p.i., read-out: Biodistribution, Lungs): 2.34 ± 1.21 %ID/g
- tissue uptake at 24 h ([1]; lungs, 24 h p.i., read-out: Biodistribution, Lungs): 1.19 ± 0.81 %ID/g
- tissue uptake at 120 h ([1]; lungs, 120 h p.i., read-out: Biodistribution, Lungs): 0.1 ± 0.05 %ID/g
- tissue uptake at 1 h ([1]; muscle, 1 h p.i., read-out: Biodistribution, Muscle): 0.76 ± 0.14 %ID/g
- tissue uptake at 4 h ([1]; muscle, 4 h p.i., read-out: Biodistribution, Muscle): 0.17 ± 0.04 %ID/g
- tissue uptake at 24 h ([1]; muscle, 24 h p.i., read-out: Biodistribution, Muscle): 0.06 ± 0.02 %ID/g
- tissue uptake at 120 h ([1]; muscle, 120 h p.i., read-out: Biodistribution, Muscle): 0.03 ± 0.01 %ID/g
- tissue uptake at 1 h ([1]; pancreas, 1 h p.i., read-out: Biodistribution, Pancreas): 1.23 ± 0.18 %ID/g
- tissue uptake at 4 h ([1]; pancreas, 4 h p.i., read-out: Biodistribution, Pancreas): 0.31 ± 0.1 %ID/g
- tissue uptake at 24 h ([1]; pancreas, 24 h p.i., read-out: Biodistribution, Pancreas): 0.1 ± 0.01 %ID/g
- tissue uptake at 120 h ([1]; pancreas, 120 h p.i., read-out: Biodistribution, Pancreas): 0.06 ± 0.01 %ID/g
- tissue uptake at 1 h ([1]; spleen, 1 h p.i., read-out: Biodistribution, Spleen): 1.99 ± 0.38 %ID/g
- tissue uptake at 4 h ([1]; spleen, 4 h p.i., read-out: Biodistribution, Spleen): 0.83 ± 0.1 %ID/g
- tissue uptake at 24 h ([1]; spleen, 24 h p.i., read-out: Biodistribution, Spleen): 1 ± 0.35 %ID/g
- tissue uptake at 120 h ([1]; spleen, 120 h p.i., read-out: Biodistribution, Spleen): 0.3 ± 0.12 %ID/g
- tissue uptake at 1 h ([1]; stomach, 1 h p.i., read-out: Biodistribution, Stomach): 1.2 ± 0.45 %ID/g
- tissue uptake at 4 h ([1]; stomach, 4 h p.i., read-out: Biodistribution, Stomach): 0.26 ± 0.14 %ID/g
- tissue uptake at 24 h ([1]; stomach, 24 h p.i., read-out: Biodistribution, Stomach): 0.31 ± 0.17 %ID/g
- tissue uptake at 120 h ([1]; stomach, 120 h p.i., read-out: Biodistribution, Stomach): 1.83 ± 2.7 %ID/g
- tissue uptake at 1 h ([1]; thyroid, 1 h p.i., read-out: Biodistribution, Thyroid): 1.68 ± 0.26 %ID/g
- tissue uptake at 4 h ([1]; thyroid, 4 h p.i., read-out: Biodistribution, Thyroid): 0.51 ± 0.13 %ID/g
- tissue uptake at 24 h ([1]; thyroid, 24 h p.i., read-out: Biodistribution, Thyroid): 0.24 ± 0.04 %ID/g
- tissue uptake at 120 h ([1]; thyroid, 120 h p.i., read-out: Biodistribution, Thyroid): 0.15 ± 0.03 %ID/g
- tissue to tissue ratio at 1 h ([1]; tumour/blood, 1 h p.i., read-out: Tumour/blood): 1.42 ± 0.2
- tissue to tissue ratio at 4 h ([1]; tumour/blood, 4 h p.i., read-out: Tumour/blood): 7.97 ± 2.18
- tissue to tissue ratio at 24 h ([1]; tumour/blood, 24 h p.i., read-out: Tumour/blood): 60.6 ± 23.8
- tissue to tissue ratio at 120 h ([1]; tumour/blood, 120 h p.i., read-out: Tumour/blood): 84.4 ± 47.2
- tissue to tissue ratio at 1 h ([1]; tumour/kidney, 1 h p.i., read-out: Tumour/kidney): 0.8 ± 0.09
- tissue to tissue ratio at 4 h ([1]; tumour/kidney, 4 h p.i., read-out: Tumour/kidney): 0.85 ± 0.24
- tissue to tissue ratio at 24 h ([1]; tumour/kidney, 24 h p.i., read-out: Tumour/kidney): 0.68 ± 0.22
- tissue to tissue ratio at 120 h ([1]; tumour/kidney, 120 h p.i., read-out: Tumour/kidney): 0.45 ± 0.21
- tissue to tissue ratio at 1 h ([1]; tumour/muscle, 1 h p.i., read-out: Tumour/muscle): 13.8 ± 2.48
- tissue to tissue ratio at 4 h ([1]; tumour/muscle, 4 h p.i., read-out: Tumour/muscle): 65.4 ± 13.7
- tissue to tissue ratio at 24 h ([1]; tumour/muscle, 24 h p.i., read-out: Tumour/muscle): 104 ± 53
- tissue to tissue ratio at 120 h ([1]; tumour/muscle, 120 h p.i., read-out: Tumour/muscle): 35.6 ± 22.4
- excreta dose per gram or mL at 1 h ([1]; urine, 1 h p.i.): 322 ± 306 %ID/g
- excreta dose per gram or mL at 4 h ([1]; urine, 4 h p.i.): 106 ± 97.1 %ID/g
- excreta dose per gram or mL at 24 h ([1]; urine, 24 h p.i.): 3.17 ± 1.25 %ID/g
- excreta dose per gram or mL at 120 h ([1]; urine, 120 h p.i.): 0.51 ± 0.21 %ID/g
- Biodistribution, B16F10 tumour (B16F10 mouse melanoma; 1 h p.i.): 10.6 ± 2.95 % ID/g
- Biodistribution, B16F10 tumour (B16F10 mouse melanoma; 4 h p.i.): 10.9 ± 2.22 % ID/g
- Biodistribution, B16F10 tumour (B16F10 mouse melanoma; 24 h p.i.): 5.50 ± 2.36 % ID/g
- Biodistribution, B16F10 tumour (B16F10 mouse melanoma; 120 h p.i.): 0.88 ± 0.58 % ID/g
